Each block holds one compound with its values, some of them ahead of it. Activity calls are given as the source filed them. No cut-off for these calls is given here.
Experiments:
[1] = (§1) Antiproliferative activity against mouse KC-0116 cells by MTT assay; format: functional, cell-based
[2] = Antiproliferative activity against mouse Ba/F3 EGFR-T790M/C797S/L858R cells; format: functional, cell-based
[3] = Antiproliferative activity against mouse KC-0122 cells by MTT assay; format: functional, cell-based
[4] = test system: NCI-H1975; experiment: Antiproliferative activity against human NCI-H1975 cells by MTT assay; format: functional, cell-based
[5] = test system: HCC827; experiment: Antiproliferative activity against human HCC827 cells by MTT assay; format: functional, cell-based
[6] = test system: A-431; experiment: Antiproliferative activity against human A-431 cells by MTT assay; format: functional, cell-based
[7] = Induction of apoptosis in mouse KC-0116 cells assessed as viable cells at 300 nM measured after 36 hrs by Annexin V/propidium iodide staining based flow cytometry (reference value: 90.66%); format: functional; conditions: read-out: Activity
[8] = Induction of apoptosis in mouse KC-0116 cells assessed as early apoptotic cells at 300 nM measured after 36 hrs by Annexin V/propidium iodide staining based flow cytometry (reference value: 6.85%); format: functional
[9] = Induction of apoptosis in mouse KC-0116 cells assessed as late apoptotic cells at 300 nM measured after 36 hrs by Annexin V/propidium iodide staining based flow cytometry (reference value: 2.47%); format: functional
[10] = Induction of apoptosis in mouse KC-0116 cells assessed as necrotic cells at 300 nM measured after 36 hrs by Annexin V/propidium iodide staining based flow cytometry (reference value: 0.03%); format: functional
[11] = test system: KC-0116; experiment: as §1; format: functional, cell-based
[12] = test system: KC-0116; experiment: Induction of apoptosis in mouse KC-0116 cells measured after 36 hrs by Annexin V/propidium iodide staining based flow cytometry; format: functional, cell-based; conditions: dose 0.1-3 µM
[13] = test system: KC-0116; experiment: Inhibition of EGFR-del19/T790M/C797S in mouse KC-0116 cells assessed as reduction in EGFR phosphorylation measured after 8 hrs by Western blot analysis; format: cell-based; conditions: dose 0.3-3 µM
[14] = test system: KC-0116; experiment: Inhibition of EGFR-del19/T790M/C797S in mouse KC-0116 cells assessed as reduction in AKT phosphorylation measured after 8 hrs by Western blot analysis; format: cell-based; conditions: dose 0.3-3 µM
[15] = Induction of apoptosis in mouse KC-0116 cells assessed as viable cells at 100 nM measured after 36 hrs by Annexin V/propidium iodide staining based flow cytometry (reference value: 90.66%); format: functional; conditions: read-out: Activity
[16] = Induction of apoptosis in mouse KC-0116 cells assessed as early apoptotic cells at 100 nM measured after 36 hrs by Annexin V/propidium iodide staining based flow cytometry (reference value: 6.85%); format: functional
[17] = Induction of apoptosis in mouse KC-0116 cells assessed as late apoptotic cells at 100 nM measured after 36 hrs by Annexin V/propidium iodide staining based flow cytometry (reference value: 2.47%); format: functional
[18] = Induction of apoptosis in mouse KC-0116 cells assessed as necrotic cells at 100 nM measured after 36 hrs by Annexin V/propidium iodide staining based flow cytometry (reference value: 0.03%); format: functional
[19] = test system: KC-0116; experiment: Cell cycle arrest in mouse KC-0116 cells assessed as increase in cell population at G2/M-phase at 0.1 to 0.3 uM measured after 48 hrs by flow cytometry; format: functional, cell-based; conditions: dose 0.1-0.3 µM
[20] = Antiproliferative activity against mouse Ba/F3 EGFR-Del19/T790M/C797S cells; format: functional, cell-based

SMILES: CN(C)C1CCN(c2ccc(Nc3ncc(Cl)c(NC4CCN(C(=O)CO)CC4)n3)cc2)CC1
IC50 [1]: 2460 nM

IC50 [4]: 830 nM | IC50 [5]: 13 nM | IC50 [6]: 500 nM
SMILES: COc1cc(N2CCC(N3CCN(C)CC3)CC2)ccc1Nc1ncc(Cl)c(Nc2ccccc2P(C)(C)=O)n1 [BRIGATINIB]
IC50 [2]: 5.57 nM | IC50 [1]: 360 nM | IC50 [3]: 440 nM | viability at 0.3 µM [7]: 90.8% | Activity [8]: 7.2% | Activity [9]: 1.94% | Activity [10]: 0.02%

SMILES: CC(=O)N1CCC(Nc2nc(Nc3ccc(N4CCN(C)CC4)cc3)ncc2Br)CC1
IC50 [1]: 950 nM

SMILES: CN(C)C1CCN(c2ccc(Nc3ncc(Cl)c(N[C@@H]4CCCN(C(=O)CO)C4)n3)cc2)CC1
IC50 [1]: > 3300 nM

SMILES: CN1CCN(c2ccc(Nc3ncc4c5ccccc5n(-c5cccc(NCCO)c5)c4n3)cc2)CC1
IC50 [1]: > 3300 nM

SMILES: CN1CCN(c2ccc(Nc3ncc(Br)c(NCc4ccccn4)n3)cc2)CC1
IC50 [1]: 1310 nM

SMILES: CN(C)C1CCN(c2ccc(Nc3ncc(Br)c(N[C@H]4CC[C@H](O)CC4)n3)cc2)CC1
IC50 [1]: 480 nM

SMILES: CN1CCN(c2ccc(Nc3ncc4c5ccccc5n(-c5cccc(NC(=O)CO)c5)c4n3)cc2)CC1
IC50 [1]: > 3300 nM

SMILES: CN(C)C1CCN(c2ccc(Nc3ncc(Cl)c(N[C@H]4CCN(S(=O)(=O)C5CC5)C4)n3)cc2)CC1
IC50 [1]: > 3300 nM

SMILES: CN1CCN(c2ccc(Nc3ncc(C(F)(F)F)c(N[C@H]4CC[C@H](O)CC4)n3)cc2)CC1
IC50 [1]: > 3300 nM

SMILES: CN(C)C1CCN(c2ccc(Nc3ncc(Cl)c(N[C@H]4CCN(C(=O)CO)C4)n3)cc2)CC1
IC50 [1]: > 3300 nM

SMILES: C=CC(=O)Nc1cc(Nc2nccc(-c3cn(C)c4ccccc34)n2)c(OC)cc1N(C)CCN(C)C [OSIMERTINIB]
IC50 [1]: 1430 nM | IC50 [3]: 1530 nM | IC50 [4]: […] | IC50 [5]: 1 nM

IC50 [4]: 580 nM | IC50 [5]: 650 nM | IC50 [6]: > 3300 nM
SMILES: CN1CCN(c2ccc(Nc3ncc(Br)c(N[C@H]4CC[C@H](O)CC4)n3)cc2)CC1
IC50 [1]: 240 nM | IC50 [3]: 250 nM

SMILES: CN1CCN(c2ccc(Nc3ncc(Br)c(N[C@H]4CCN(S(=O)(=O)C5CC5)C4)n3)cc2)CC1
IC50 [1]: 1130 nM

SMILES: CN1CCN(c2ccc(Nc3ncc4c5ccccc5n(-c5cccc(NS(C)(=O)=O)c5)c4n3)cc2)CC1
IC50 [1]: > 3300 nM

SMILES: CN1CCN(c2ccc(Nc3ncc4c5ccc(OC(F)(F)F)cc5n(-c5cccc(NC(=O)CN)c5)c4n3)cc2)CC1
IC50 [1]: > 3300 nM

SMILES: CN1CCN(c2ccc(Nc3ncc4c5ccccc5n([C@H]5CCN(S(=O)(=O)C6CC6)C5)c4n3)cc2)CC1
IC50 [1]: > 3300 nM

SMILES: CN(C)C1CCN(c2ccc(Nc3ncc(Cl)c(N[C@H]4CCCN(C(=O)CO)C4)n3)cc2)CC1
IC50 [1]: 1660 nM

SMILES: CN1CCN(c2ccc(Nc3ncc(Br)c(NC4CCOCC4)n3)cc2)CC1
IC50 [1]: 710 nM

SMILES: CN1CCN(c2ccc(Nc3ncc(Br)c(Nc4cccc(NC(=O)CN)c4)n3)cc2)CC1
IC50 [1]: 440 nM

SMILES: CN1CCN(c2ccc(Nc3ncc(Br)c(NC4CCN(S(=O)(=O)C5CC5)CC4)n3)cc2)CC1
IC50 [1]: 1100 nM

SMILES: CN1CCN(c2ccc(Nc3ncc(-c4ccccc4)c(N[C@H]4CCN(S(=O)(=O)C5CC5)C4)n3)cc2)CC1
IC50 [1]: > 3300 nM

IC50 [4]: > 3300 nM | IC50 [5]: > 3300 nM | IC50 [6]: 620 nM
SMILES: CN1CCN(c2ccc(Nc3ncc(Br)c(N[C@@H]4CCCN(S(=O)(=O)C5CC5)C4)n3)cc2)CC1
IC50 [1]: 200 nM | Activity [11]: Dose-Dependent Effect | IC50 [3]: 210 nM | Activity [12]: Dose-Dependent Effect | inhibition [13]: Dose-Dependent Effect | inhibition [14]: Dose-Dependent Effect | viability at 0.1 µM [15]: 83.9% | Activity [16]: 11.51% | Activity [17]: 4.61% | Activity [18]: 0.01% | viability at 0.3 µM [7]: 80.2% | Activity [8]: 14.6% | Activity [9]: 5.19% | Activity [10]: 0% | Activity [19]: Active

SMILES: CN1CCN(c2ccc(Nc3ncc(Br)c(N[C@@H]4CCN(S(=O)(=O)C5CC5)C4)n3)cc2)CC1
IC50 [1]: 3010 nM

SMILES: CN1CCN(c2ccc(Nc3ncc(-c4ccccc4)c(Nc4cccc(NC(=O)CN)c4)n3)cc2)CC1
IC50 [1]: > 3300 nM

SMILES: COc1cc(N2CCC(N3CCN(C)CC3)CC2)c(C)cc1Nc1ncc(Br)c(Nc2ccc3nccnc3c2P(C)(C)=O)n1
IC50 [2]: 0.21 nM | IC50 [20]: 0.16 nM

SMILES: CN1CCN(c2ccc(Nc3ncc(Br)c(N[C@H]4CCCN(S(=O)(=O)C5CC5)C4)n3)cc2)CC1
IC50 [1]: 2000 nM

SMILES: CN1CCN(c2ccc(Nc3ncc4c5ccccc5n(-c5ccc(NC(=O)CN)cc5)c4n3)cc2)CC1
IC50 [1]: > 3300 nM

SMILES: CN1CCN(c2ccc(Nc3ncc(Cl)c(N[C@H]4CC[C@H](O)CC4)n3)cc2)CC1
IC50 [1]: 310 nM

SMILES: CN1CCN(c2ccc(Nc3ncc(Br)c(NC4CCN(S(C)(=O)=O)CC4)n3)cc2)CC1
IC50 [1]: 940 nM

SMILES: CN(C)C1CCN(c2ccc(Nc3ncc(Cl)c(N[C@@H]4CCN(S(=O)(=O)C5CC5)C4)n3)cc2)CC1
IC50 [1]: 460 nM

Source: ChEMBL document CHEMBL5365399, “Design, synthesis and evaluation of new pyrimidine derivatives as EGFRC797S tyrosine kinase inhibitors” (Bioorg Med Chem Lett, 2023)
